# Results taken from patent publication US7816371B2, “Bicycloheteroaryl compounds as P2X7 modulators and uses thereof” (Renovis, Inc., priority 2006, dated 2010).
# What was measured:
# P2X7 receptor = molecular target: T1, P2X7 receptor (Homo sapiens, UniProt Q99572); test: IL-1β release assay in differentiated THP-1 cells stimulated with BzATP (Example 9); % inhibition and IC50; assay type: cell-based; conditions: THP-1 cells differentiated with LPS and IFN-γ, 30 min pretreatment, BzATP 250 uM, IL-1β by ELISA
# T1 construct: host or cells: THP-1 cells differentiated with LPS and IFN-γ
# T1 sequence (Q99572 1-595): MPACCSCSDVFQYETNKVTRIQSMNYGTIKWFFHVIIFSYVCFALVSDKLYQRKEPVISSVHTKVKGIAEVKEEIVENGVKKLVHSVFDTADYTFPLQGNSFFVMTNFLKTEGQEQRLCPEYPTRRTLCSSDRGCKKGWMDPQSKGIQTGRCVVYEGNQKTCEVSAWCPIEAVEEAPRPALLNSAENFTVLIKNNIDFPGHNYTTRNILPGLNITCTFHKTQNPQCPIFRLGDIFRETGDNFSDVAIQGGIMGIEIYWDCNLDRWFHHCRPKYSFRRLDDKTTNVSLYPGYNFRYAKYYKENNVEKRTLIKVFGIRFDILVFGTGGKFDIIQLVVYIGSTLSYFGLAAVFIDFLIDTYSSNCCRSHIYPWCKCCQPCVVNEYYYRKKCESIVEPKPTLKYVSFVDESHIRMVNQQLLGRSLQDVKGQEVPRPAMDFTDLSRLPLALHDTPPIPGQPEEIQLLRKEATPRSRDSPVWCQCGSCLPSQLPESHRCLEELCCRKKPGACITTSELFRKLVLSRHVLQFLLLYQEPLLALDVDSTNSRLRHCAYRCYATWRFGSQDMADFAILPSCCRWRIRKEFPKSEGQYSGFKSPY
# How it was run: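 Differentiated THP-1 cells pretreated 30 min with compound in RPMI before BzATP stimulation. Supernatant IL-1β measured by ELISA. Percent inhibition derived from background-adjusted IL-1β of treated versus untreated cells.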
# [1] = Pharmacokinetic evaluation following intravenous and oral administration in rats (oral bioavailability); assay type: in vivo, Male Sprague-Dawley rats; conditions: PO 1 to 5 mg/kg vs IV 1 mg/kg, AUCinf normalized to dose
# Protocol: Male Sprague-Dawley rats are acclimatized for at least 24 hours prior to experiment initiation. […] During the first 3 hours of experimentation, the animals receive only water ad libitum. At least three animals each are tested for intravenous and oral dosage. For intravenous formulation, compounds were dissolved (0.25 to 1 mg/mL) in a mixture of 3% dimethyl sulfoxide, 40% PEG 400 and the rest percentage of 40% Captisol in water (w/v). The animals are weighed before dosing. The determined body weight is used to calculate the dose volume for each animal.
# PO rats are typically dosed through oral gavage following the same dose volume formula as IV to achieve a dose level of 1 to 5 mg/kg. […] About 250 uL of blood is obtained at each time point from the animal. Equal volumes of 0.9% normal saline are replaced to prevent dehydration. The whole blood samples are maintained on ice until centrifugation. Blood samples are then centrifuged at 14,000 rpm for 10 minutes at 4° C. and the upper plasma layer transferred into a clean vial and stored at −80° C. The resulting plasma samples are then analyzed by liquid chromatography-tandem mass spectrometry. Following the measurement of plasma samples and dosing solutions, plasma concentration-time curve is plotted. […] The % F is reported as the mean % F of all animals dosed orally with the compound of the invention at the specified level (see Table 4 below).
# [2] = Determination of aqueous (kinetic) solubility; assay type: physicochemical; conditions: buffer pH 7.4, room temperature
# Protocol: The mixture was vortexed for 1 hour and equilibrated overnight at room temperature. The mixture was filtered through a saturated filter and the filtrate was analyzed by LC/MS/MS.
SMILES,IC50 (P2X7 receptor),Oral Bioavailability F (%) [1],solubility [2]
"O=C(Cc1cccc(C(F)(F)F)c1F)Nc1c(NCCO)ccc2c(=O)n(CCO)ccc12 [Compound 385, 2-(2-Fluoro-3-trifluoromethyl-phenyl)-N-[2-(2-hydroxy-ethyl)-6-(2-hydroxy-ethylamino)-1-oxo-1,2-dihydro-isoquinolin-5-yl]-acetamide]",> 1000 nM,,
"O=C(Cc1ccc(F)c(C(F)(F)F)c1)Nc1c(Cl)ccc2c(=O)n(CCO)ccc12 [Compound 386, N-[6-Chloro-2-(2-hydroxy-ethyl)-1-oxo-1,2-dihydro-isoquinolin-5-yl]-2-(4-fluoro-3-trifluoromethyl-phenyl)-acetamide]",5.45 nM,,
Cc1ccc2c(=O)n([C@H](C)CO)ccc2c1NC(=O)Cc1ccc(F)c(C(F)(F)F)c1 [Compound 394],0.74 nM,,
Cc1ccc2c(=O)n([C@H](C)CO)ccc2c1NC(=O)Cc1cccc(C(F)(F)F)c1F [Compound 395],,++ (26-50% F),
Cc1ccc2c(=O)n([C@H](C)CO)ccc2c1NC(=O)Cc1ccc(C(F)(F)F)cc1 [Compound 397],5.54 nM,,
"Cc1ccc2c(c1NC(=O)Cc1ccc(C(F)(F)F)c(F)c1)CCN([C@H](C)CO)C2=O [Compound 401, N-[6-Methyl-2-((R)-2-hydroxy-1-methyl-ethyl)-1-oxo-1,2,3,4-tetrahydro-isoquinolin-5-yl]-2-(3-fluoro-4-trifluoromethyl-phenyl)-acetamide]",1.44 nM,,> 75 µM
